Here are results for six molecules from patent US9809622B2, “Tumor-targeting polypeptide and application thereof” (Sun Yat-sen University Cancer Center, priority 2013, dated 2017).

Positions of bridges follow the written chain, without caps; N, C: chain ends. Non-standard residues stand in square brackets, D forms with d. Residues, ends and D or L forms follow the SMILES beside them. No end group written: not given here. *: point of attachment. Biotin = O=C1N[C@H]2[C@H](CS[C@H]2CCCCC(=O)*)N1

Series [1] relates to CNE2. In words: Apoptosis by Cleaved Caspase 3/7 kit, flow cytometry. The class given is cell-based. Conditions: FIG. 6A. How it is done:
(§1) Therapeutic effects of 35-AP peptide were assessed by Cleaved Caspase 3/7 kit. Detailed steps were as followed: • 1) After the cells were planked for 24 hours, the peptide dissolved by 1640 was incubated with cells at 37° C. for four hours; • 2) Trypsinizing cells with TrypLE Expression, counting and adjusting the concentration to 1.0*10^6 cells/ml, and transferring 300 μl into flow cytometry tube; • 3) Adding 10 μl 30*FLICA working solution; • 4) Incubating the cells at 37° C. with 5% CO2 for one hour, and mixing once every 15 minutes; • 5) Washing with 2 ml Washing buffer, then centrifuging at 400 g force for 5 minutes; • 6) Re-suspending the precipitate with 1 ml Washing buffer; • 7) Detecting the staining signal using flow cytometer.

The subject of series [2] is nasopharyngeal carcinoma cell line, CNE2. Briefly: Blocking test in phage counting assay (35 peptide blocks phage 35 binding). As to conditions: FIG. 1B. The class given is cell-based. How it is done:
The phage counting assay was conducted to first test the binding ability of phage 35 to nasopharyngeal carcinoma cell line, CNE2 and then test whether the 35 peptide can block the binding of the phage 35 to CNE2. The process will be described in detail hereinafter. • 1) Trypsinizing cells, counting to obtain 1.0*10^6 cells/tube, and re-suspending cells with 200 μl RPMI (Roswell Park Memorial Institute) 1640 medium; • 2) For the blocking test, adding the 35 peptide at a corresponding concentration and incubating on ice for 30 minutes (the binding assay skips this step and directly goes to the third step); • 3) Adding 1.0*10^8 phages, and incubating on ice for binding for one hour; • 4) After washing with 1 ml PBS (Phosphate Buffered Saline), the resulting products were centrifuged at 400 g force for 5 min; repeating this step three times; • 5) Re-suspending the precipitate with 1 ml TBS (Tris Buffered Saline), diluting the resulting suspension liquid 10^3-10^4 fold, and only taking 100 μl for phage count assay; • 6) Inoculating BL21 competent cell for T7 phage with 1:100 v/v, then shaking at 200 RPM at 37° C. for four hours until OD600 (Optical Density at a wavelength of 600 nm) reaches 0.5-1.0 when the bacteria are on the logarithmic phase. […] The titer of phage was calculated based on the diluted factors.

In series [3] the test system is CNE2 cells. In words: Therapeutic effect of 35-AP peptide in tumor-bearing mice. The class given is in vivo, BALB/C nude mice. Conditions: 200 μg intravenously every other day 6 times, compared with two control groups, FIG. 6E. The method, then:
Injecting 35-AP peptide to tumor-bearing mice to detect its therapeutic effect. Detailed steps were as follows: • 1) Selecting twenty four 4-week-old BALB/C nude mice; • 2) Trypsinizing CNE2 cells, counting and adjusting the concentration to 1.0*10^6 cells/ml, and re-suspending cells with 200 μl RPMI 1640 medium containing 20% Matrigel, then subcutaneously injecting 200 μl re-suspended cells into the nude mice; • 3) Observing and measuring the size of tumor after 1-2 weeks. Based on the tumor size, the mice were randomly divided into three groups (PBS, Control AP and 35-AP); • 4) Intravenously injecting 200 μl PBS or 200 μg fluorescence peptide dissolved in 200 μl PBS every other day for 6 times in total. Measuring the length and width of tumor before and after injection. The volume of tumor=0.52*(length*width*width); • 5) Performing statistical analysis of the size of tumors.

A further series relates to SUNE1. Briefly: Apoptosis by Cleaved Caspase 3/7 kit, flow cytometry. It is filed as cell-based. As to conditions: FIG. 6B. How it is done:
as §1

Another series relates to HONE1. The series is described as above. Conditions: FIG. 6B. The class given is cell-based. The method, then: as §1
Another series concerns 5-8F. The description is as above. As to conditions: FIG. 6B. The class given is cell-based. How it is done: as §1
In another series the test system is CNE1. The description is as above. The class given is cell-based. Conditions: FIG. 6B. The method, then:
as §1

Series [4] concerns CNE2. Briefly: Cleaved Caspase3 cellular immunofluorescence assay. The class given is cell-based. Conditions: incubated with CNE2; FIG. 6C.
The test system of series [5] is CNE2 cells. As to conditions: 37° C. two hours.
Experimental: The cellular immunofluorescence assay was applied to detect whether Biotin-35 peptide can penetrate CNE2 cells. Detailed steps were as followed: • 1) Incubating Biotin-35 peptide or Biotin-control peptide with cells at 37° C. for two hours; • 2) Washing three times with 1 ml PBS for 5 minutes; • 3) Fixing the cells with 4% paraformaldehyde for 10 minutes; • 4) Incubating cells with 0.1% Triton-X100 for 5 minutes; • 5) Blocking with 5% BSA for 30 minutes; • 6) Washing with 1 ml PBS twice; • 7) Adding FITC-streptavidin and avoiding light for one hour; • 8) Washing three times with 1 ml PBS for 5 minutes; • 9) Adding DAPI at a ratio of 1:2000 and keeping it away from light at room temperature for 5 minutes, • 10) Washing with 1 ml PBS for 5 minutes, • 11) Mounting samples with Anti-fade, and observing the samples under the laser confocal microscope.
Series [6] relates to nasopharyngeal carcinoma cell CNE2. In words: Flow cytometry analysis of binding of Cy5-35 peptide. It is filed as cell-based. Conditions: 5 μM or 10 μM, on ice 30 minutes; FIG. 1C. How it is done: Flow cytometry analysis was applied to detect the binding affinity of Cy5-35 peptide to nasopharyngeal carcinoma cell CNE2. Firstly, the 35 peptide and control peptides separately coupled with fluorescent dye Cy5 were synthesized. Then, Cy5-35 peptide were incubated with cells. At the end, the binding efficacy was calculated using the flow cytometry analysis. Detailed steps were as followed: • 1) Trypsinizing cells, counting and adjusting the concentration to 1.0*10^6 cells/tube, and re-suspending cells with 200 μl RPMI 1640 medium; • 2) Adding Cy5-Control peptide or Cy5-35 peptide dissolved with PBS at a concentration of 5 μM or 10 μM, then incubating on ice for 30 minutes. • 3) Washing with 1 ml PBS, then centrifuging at 400 g force for 5 minutes; repeating this step twice; • 4) Re-suspending the precipitate with 1 ml TBS, • 5) Conducting the flow cytometry analysis.

The subject of another series is MDA-MB-231. In words: Near-infrared fluorescence imaging in MDA-MB-231 nude mice model. It is filed as in vivo. Conditions: FIG. 4D. The method, then: (§2) Cy5-35 peptide distribution was examined in the different organs and tumors of nude mice. Small animal imaging assay was operated as followed: • 1) Using nine 4-week-old BALB/C nude mice; • 2) Trypsinizing cells, counting and adjusting the concentration to 1.0*10^6 cells/ml, and re-suspending cells with 200 μl RPMI 1640 medium containing 20% Matrigel, then subcutaneously injecting into the nude mice; • 3) Observing and measuring the size of tumor after 1-2 weeks. Based on the tumor size, the mice were randomly divided into three groups (PBS, Cy5-Control and Cy5-35, 3 mice in each group); • 4) Intravenously injecting 200 μl PBS or 300 μg fluorescence peptide dissolved in 200 μl PBS; the peptide distribution is detected in both normal organs and tumor using Caliper IVIS Lumina II; • 5) Obtaining normal organs and the tumor tissues, homogenizing them, and calculating the fluorescence intensity of normal organs and the tumor for statistical analysis.
To detect whether Cy5-35 peptide can apply to other tumors, the peptides were applied to MDA-MB-231 nude mice model.

Series [7] concerns tumor vessels and tumor cells. Briefly: Targeting and penetrating tumor vessels and tumor cells, frozen section and immunohistochemical assay. It is filed as in vivo, BALB/C nude mice. Conditions: 300 μg. The method, then:
Cy5-35 peptide is tested to target and penetrate the vessels using the frozen section and immunohistochemical assay. Detailed steps were as followed: • 1) Using nine 4-week-old BALB/C nude mice • 2) Trypsinizing cells, counting and adjusting the concentration to 1.0*10^6 cells/ml, and re-suspending cells with 200 μl RPMI 1640 medium containing 20% Matrigel, then subcutaneously injecting into the nude mice; • 3) Observing and measuring the size of tumor after 1-2 weeks. Based on the tumor size, the mice were randomly divided into three groups (PBS, Cy5-Control and Cy5-35, three mice in each group); • 4) Intravenously injecting 200 μl PBS or 300 μg fluorescence peptide dissolved in 200 μl PBS; • 5) Obtaining the tumor tissues, and making frozen sections and cutting slides, storing at −80° C.; • 6) Fixing the slides in cooled acetone for 10 min, washing 5 times with PBS for 5 minutes; • 7) Soaking the slides with 3% H2O2 to remove endogenous peroxidase and then washing 3 times with 1 ml PBS for 5 minutes; • 8) Blocking with 10% BSA for 20 minutes at room temperature; • 9) Incubating with anti-CD31 mouse first antibody at 4° C. overnight; • 10) Washing 3 times with PBS for 5 minutes; • 11) Incubating anti-mouse FITC second antibody at room temperature for one hour, keeping it away from light, and then washing 3 times with 1 ml PBS for 5 min; • 12) Adding DAPI at room temperature and keeping for 5 minutes and then washing 3 times with 1 ml PBS for 5 minutes; • 13) Covering the slides with anti-fade, then observing the slides under the laser confocal microscope

For series [8], the system named is nasopharyngeal carcinoma cells CNE2. Briefly: Flow cytometry analysis of cell penetration. The class given is cell-based. As to conditions: 37° C. two hours; FIG. 2B. An excerpt:
The flow cytometry analysis was applied to detect whether phage 35 can penetrate the nasopharyngeal carcinoma cells CNE2.

In a further series the test system is nasopharyngeal carcinoma. Briefly: Near-infrared fluorescence imaging of tumor, small animal imaging. It is filed as in vivo, BALB/C nude mice. Conditions: 24 hours after intravenous injection. The method, then:
as §2

The mark [9] stands for this setting: 2 h after intravenous injection, FIG. 3B.

Turning to CRWYDENAC (disulfide 1-9) [35 peptide], the “apoptosis in CNE2” value in the series with CNE2 [1] is “cannot induce the apoptosis in CNE2”. Besides, in series [2], the “blocking of phage 35 binding to CNE2” value is listed as “prevents phage 35 from binding to CNE2 in a dose-dependent manner”.

On to “D (KLAKLAKKLAKLAK) (D-amino acids) [AP peptide, reference compound]”, for which, in the series on CNE2 [1], the “apoptosis in CNE2” value is recorded as “cannot induce the apoptosis in CNE2”.

Regarding `CC(C)C[C@@H](NC(=O)[C@H](N)CCCCN)C(=O)N[C@H](C)C(=O)N[C@H](CCCCN)C(=O)N[C@H](CC(C)C)C(=O)N[C@H](C)C(=O)N[C@H](CCCCN)C(=O)N[C@H](CCCCN)C(=O)N[C@H](CC(C)C)C(=O)N[C@H](C)C(=O)N[C@H](CCCCN)C(=O)N[C@H](CC(C)C)C(=O)N[C@H](C)C(=O)N[C@H](CCCCN)C(=O)NCC(=O)NCC(=O)N[C@H]1CSSC[C@@H](C(=O)O)NC(=O)[C@H](C)NC(=O)[C@H](CC(N)=O)NC(=O)[C@H](CCC(=O)O)NC(=O)[C@H](CC(=O)O)NC(=O)[C@H](Cc2ccc(O)cc2)NC(=O)[C@H](Cc2c[nH]c3ccccc23)NC(=O)[C@H](CCCNC(=N)N)NC1=O` [35-AP peptide, D (KLAKLAKKLAKLAK)-GG-CRWYDENAC] (H-[dK][dL][dA][dK][dL][dA][dK][dK][dL][dA][dK][dL][dA][dK]GGCRWYDENAC-OH; disulfide 17-25 (inferred); N-terminus and C-terminus assumed), the tumor volume result with CNE2 cells [3] was “reduced the tumor volume markedly”. In addition, the “cell apoptosis in SUNE1” value in the series with SUNE1 is on record as “also led to cell apoptosis”. Further, in the series with CNE2 [1], the “apoptosis in CNE2” value is “can significantly promote the apoptosis”. Further, the “cell apoptosis in HONE1” value with HONE1 is “also led to cell apoptosis”. For the same molecule, the “cell apoptosis in 5-8F” value with 5-8F is listed as “also led to cell apoptosis”. Besides, in the series with CNE1, the “cell apoptosis in CNE1” value is on record as “also led to cell apoptosis”. For the same molecule, the “cleaved Caspase3 activation” value in the series on CNE2 [4] is “cleaved Caspase3 was activated”.

For the molecule “Biotin-CRWYDENAC (cysteine pairing not given here) [Biotin-35 peptide]”, in the series with CNE2 cells [5], the “penetration into CNE2 (cellular immunofluorescence)” value is “is able to penetrate into CNE2”.

Take “D (KLAKLAKKLAKLAK-GG-CRWYDENAC) (KLAKLAKKLAKLAKGGCRWYDENAC; D-amino acids) [(35-AP)D]”: in the series on CNE2 [1], the “apoptosis in CNE2” value is “also activated the apoptosis of CNE2”.

As to “Cy5-CRWYDENAC (disulfide 1-9) [Cy5-35 peptide]”, the “binding to CNE2 cells (flow cytometry)” value in series [6] was “binds to CNE2 cells in a dose-dependent manner”. In the series with MDA-MB-231, the breast cancer imaging result was “can also be applied in breast cancer imaging”. Further, in series [7] (setting [9]), the “co-localization with vessel marker CD31 in tumor” value is “co-localized with vessel marker CD31”; the “penetration of tumor vessels and tumor cells” value was “part of Cy5-35 peptides penetrated the tumor vessels and tumor cells”. The “co-localization with vessel marker CD31 in tumor” value in series [7] (half an hour after intravenous injection, FIG. 3A) was “co-localized with vessel marker CD31”. Also, in series [8], the “penetration into CNE2 (flow cytometry)” value is listed as “penetrates into CNE2 in a dose-dependent manner”. The “enrichment in tumor (NIR imaging)” value in the series with nasopharyngeal carcinoma (FIG. 4A) is listed as “significantly enriched in tumor”. Besides, the “residual peptide in lung (NIR imaging)” value with nasopharyngeal carcinoma (FIG. 4B) is on record as “certain residual peptides in lung”. Further, in the series with nasopharyngeal carcinoma (FIG. 4C), the “intensity of fluorescence in tumor versus other organs” value was “significantly stronger than that in other organs”.
